Test: in vitro
Details: human, hela cells, % viability

First: COc1cc(-c2cncc(N3CCC(C(=O)O)CC3)n2)cc(OC)c1OC [CBK037973]
Second: COc1ccc(N2CCN(c3cncc(-c4cc(OC)c(OC)c(OC)c4)n3)CC2)cc1OC [CBK037988]
The viability at 28.5 h, 10 µM of the first is higher: 100% for the first, 99.9% for the second.

Going from `CC(=O)c1ccc(-c2nccnc2NCC2CC2)s1` [CBK037975] to `COCCNc1nccnc1-c1ccccc1CO` [CBK038010], the viability at 28.5 h, 10 µM rises from 104% to 108%.

Going from `c1cc(CCNc2nccn3ccnc23)ccn1` [CBK037976] to `O=C(O)CCc1ccc(-c2cn3ccnc3c(NCc3ccncc3)n2)cc1` [CBK038022], the viability at 28.5 h, 10 µM falls from 99.2% to 90.6%.

Compared with `COc1ccccc1-c1cn2ccnc2c(NCCc2ccccn2)n1` [CBK037980], `FC(F)(F)Oc1cccc(-c2cn3ccnc3c(NCCc3ccccn3)n2)c1` [CBK038017] is lower in viability at 28.5 h, 10 µM: 107% for the first, 96.7% for the second.

Compared with `CN(C)C(=O)COc1cccc(Nc2nc(Br)cn3ccnc23)c1` [CBK037989], `Brc1cn2ccnc2c(NCc2ccccn2)n1` [CBK038024] is lower in viability at 28.5 h, 10 µM: 92.8% for the first, 88.7% for the second.

Going from `COc1cc(-c2nccnc2N2CCCN(C)CC2)cc(OC)c1OC` [CBK037994] to `COc1cc(-c2nccnc2N[C@@H](CO)C(C)C)cc(OC)c1OC` [CBK038023], the viability at 28.5 h, 10 µM rises from 97.8% to 111%.

Compared with `O=C(O)c1ccc(CNC(=O)c2cnc(-c3ccc(F)cc3)c(-c3ccc(O)cc3)c2)cc1` [CBK037996], `COc1ccc(-c2cc(C(=O)Nc3ccc(O)cc3)cnc2-c2ccc(F)cc2)cc1` [CBK038026] is lower in viability at 28.5 h, 10 µM: 101% for the first, 95.5% for the second.

Going from `CC(=O)Nc1cccc(-c2nccnc2NCC(c2cccnc2)N(C)C)c1` (stereo not drawn) [CBK037998] to `CN(C)C(CNc1nccnc1-c1ccc(CO)cc1)c1cccnc1` (stereo not drawn) [CBK038038], the viability at 28.5 h, 10 µM falls from 95.6% to 87.6%.

Going from `CCNc1nc(-c2ccc3[nH]ccc3c2)cn2ccnc12` [CBK038002] to `COc1cc(Nc2nc(-c3ccc4[nH]ccc4c3)cn3ccnc23)cc(OC)c1OC` [CBK038069], the viability at 28.5 h, 10 µM falls from 99.5% to 95.5%.

Going from `OCc1ccc(-c2nccnc2NCCc2c[nH]c3ccccc23)cc1` [CBK038004] to `COc1cc(-c2nccnc2NCCc2c[nH]c3ccccc23)cc(OC)c1OC` [CBK038015], the viability at 28.5 h, 10 µM rises from 98.8% to 102%.

Compared with `CN(C)CCN(C)c1nc(-c2ccc(F)c(Cl)c2)cn2ccnc12` [CBK038007], `CCN(CCO)c1ccc(Nc2nc(-c3ccc(F)c(Cl)c3)cn3ccnc23)cc1` [CBK038042] is higher in viability at 28.5 h, 10 µM: 95.7% for the first, 100% for the second.

Compared with `COc1ccc(-c2nccnc2N2CCN(C)CC2)cc1` [CBK038012], `OCCN1CCN(c2nccnc2-c2ccncc2)CC1` [CBK038084] is lower in viability at 28.5 h, 10 µM: 113% for the first, 89.2% for the second.

Going from `Nc1cccc(-c2cc(C(=O)NCCc3cccnc3)cnc2-c2ccc(F)cc2)c1` [CBK038016] to `COc1cc(C(O)CNC(=O)c2cnc(-c3ccc(F)cc3)c(-c3cccc(N)c3)c2)ccc1O` (stereo not drawn) [CBK038032], the viability at 28.5 h, 10 µM falls from 102% to 98.8%.

First: Clc1ccccc1-c1cn2ccnc2c(NCc2cccnc2)n1 [CBK038039]
Second: O=C(O)CCc1ccc(-c2cn3ccnc3c(Nc3ccc(Br)cc3)n2)cc1 [CBK038058]
The viability at 28.5 h, 10 µM of the first is lower: 94.5% for the first, 113% for the second.

First: COc1cc(CNc2nc(Br)cn3ccnc23)cc(OC)c1OC [CBK038060]
Second: CCCC/C=C/c1cn2ccnc2c(Nc2ccc(OC)nc2)n1 [CBK038089]
The viability at 28.5 h, 10 µM of the first is higher: 110% for the first, 100% for the second.

Compared with `CC(C)[C@H](CO)Nc1nc(-c2ccc3c(c2)OCO3)cn2ccnc12` [CBK038071], `Cc1cccc(CNc2nccnc2-c2cccc(N)c2)c1` [CBK038080] is lower in viability at 28.5 h, 10 µM: 101% for the first, 92.4% for the second.

First: CCCC/C=C/c1nccnc1NCc1ccc(C(F)(F)F)cc1 [CBK038077]
Second: CCCC/C=C/c1nccnc1NCc1cccs1 [CBK038090]
The viability at 28.5 h, 10 µM of the first is lower: 94.4% for the first, 101% for the second.

First: OCCCNc1nccnc1-c1ccccc1Cl [CBK038092]
Second: COc1ccc([C@@]23CC[C@H](NC(=O)c4[nH]cnc4C)C[C@@H]2N(C)CC3)cc1OC [CBK038097]
The viability at 28.5 h, 10 µM of the first is lower: 81.6% for the first, 118% for the second.
